{"source": "paper PMC4177084", "about": "(Journal of Thyroid Research, 2014)", "key": {"KIF5B-RET (wild-type)": {"biological_target": "T1, KIF5B-RET (wild-type) (Homo sapiens, UniProt P07949+P33176)", "T1 construct": "KIF5B N-terminal portion (fusion partner); expressed in transfected cells; host or cells: Nthy-ori 3-1 (human normal thyroid cells), plasmid pCLxIP KIF5B-RET", "T1 sequence (P07949 713-1063 limits assumed, one chain of several)": "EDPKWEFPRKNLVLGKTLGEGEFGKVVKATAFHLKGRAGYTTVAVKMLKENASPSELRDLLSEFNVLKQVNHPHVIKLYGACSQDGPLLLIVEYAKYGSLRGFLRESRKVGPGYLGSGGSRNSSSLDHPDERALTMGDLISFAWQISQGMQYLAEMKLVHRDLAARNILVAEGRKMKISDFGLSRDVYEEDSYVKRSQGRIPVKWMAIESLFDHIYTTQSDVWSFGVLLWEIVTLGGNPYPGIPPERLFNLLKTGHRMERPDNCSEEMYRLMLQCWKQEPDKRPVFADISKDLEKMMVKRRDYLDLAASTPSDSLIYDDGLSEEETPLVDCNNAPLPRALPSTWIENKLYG", "experiment": "Western blot of RET phosphorylation in Nthy-ori 3-1 transfectants", "type": "cell-based", "details": "1 h", "from_the_text": "(§1) The human full-length KIF5B-RET gene was chemically synthesized by GenScript Corp. (Piscataway, NJ) and then amplified by polymerase chain reaction (PCR) using a primer set containing attB recombination sequences. ENTRY vectors for the Gateway cloning system (Life Technologies) were generated via the BP Clonase reaction using the PCR products and the plasmid pDONR221. The expression vector pCLxIP KIF5B-RET was generated via the LR Clonase reaction between each ENTRY vector and the destination vector pCLxIP-DEST [37]. Expression vectors for KIF5B-RET M918T were generated by introducing a point mutation into the pCLxIP KIF5B-RET expression vector."}, "KIF5B-RET (M918T)": {"biological_target": "T2, KIF5B-RET (M918T) (Homo sapiens, UniProt P07949+P33176, M918T)", "T2 construct": "KIF5B N-terminal portion (fusion partner); expressed in transfected cells; host or cells: Nthy-ori 3-1 (human normal thyroid cells), plasmid pCLxIP KIF5B-RET M918T", "T2 sequence (P07949 713-1063 M918T limits assumed, one chain of several)": "as the sequence (P07949 713-1063 limits assumed, one chain of several) above, with M206T counted along it", "experiment": "Western blot of RET phosphorylation in Nthy-ori 3-1 transfectants", "type": "cell-based", "details": "1 h", "from_the_text": "as §1"}, "PLK1": {"biological_target": "T3, PLK1 (Homo sapiens, UniProt P53350)", "T3 construct": "purchased Carna Biosciences, Inc. (Kobe, Japan)", "experiment": "Cell free kinase inhibition assay", "type": "biochemical"}, "MET": {"biological_target": "T4, MET (Homo sapiens, UniProt P08581)", "T4 construct": "purchased Carna Biosciences, Inc. (Kobe, Japan)", "T4 sequence (P08581 25-1390)": "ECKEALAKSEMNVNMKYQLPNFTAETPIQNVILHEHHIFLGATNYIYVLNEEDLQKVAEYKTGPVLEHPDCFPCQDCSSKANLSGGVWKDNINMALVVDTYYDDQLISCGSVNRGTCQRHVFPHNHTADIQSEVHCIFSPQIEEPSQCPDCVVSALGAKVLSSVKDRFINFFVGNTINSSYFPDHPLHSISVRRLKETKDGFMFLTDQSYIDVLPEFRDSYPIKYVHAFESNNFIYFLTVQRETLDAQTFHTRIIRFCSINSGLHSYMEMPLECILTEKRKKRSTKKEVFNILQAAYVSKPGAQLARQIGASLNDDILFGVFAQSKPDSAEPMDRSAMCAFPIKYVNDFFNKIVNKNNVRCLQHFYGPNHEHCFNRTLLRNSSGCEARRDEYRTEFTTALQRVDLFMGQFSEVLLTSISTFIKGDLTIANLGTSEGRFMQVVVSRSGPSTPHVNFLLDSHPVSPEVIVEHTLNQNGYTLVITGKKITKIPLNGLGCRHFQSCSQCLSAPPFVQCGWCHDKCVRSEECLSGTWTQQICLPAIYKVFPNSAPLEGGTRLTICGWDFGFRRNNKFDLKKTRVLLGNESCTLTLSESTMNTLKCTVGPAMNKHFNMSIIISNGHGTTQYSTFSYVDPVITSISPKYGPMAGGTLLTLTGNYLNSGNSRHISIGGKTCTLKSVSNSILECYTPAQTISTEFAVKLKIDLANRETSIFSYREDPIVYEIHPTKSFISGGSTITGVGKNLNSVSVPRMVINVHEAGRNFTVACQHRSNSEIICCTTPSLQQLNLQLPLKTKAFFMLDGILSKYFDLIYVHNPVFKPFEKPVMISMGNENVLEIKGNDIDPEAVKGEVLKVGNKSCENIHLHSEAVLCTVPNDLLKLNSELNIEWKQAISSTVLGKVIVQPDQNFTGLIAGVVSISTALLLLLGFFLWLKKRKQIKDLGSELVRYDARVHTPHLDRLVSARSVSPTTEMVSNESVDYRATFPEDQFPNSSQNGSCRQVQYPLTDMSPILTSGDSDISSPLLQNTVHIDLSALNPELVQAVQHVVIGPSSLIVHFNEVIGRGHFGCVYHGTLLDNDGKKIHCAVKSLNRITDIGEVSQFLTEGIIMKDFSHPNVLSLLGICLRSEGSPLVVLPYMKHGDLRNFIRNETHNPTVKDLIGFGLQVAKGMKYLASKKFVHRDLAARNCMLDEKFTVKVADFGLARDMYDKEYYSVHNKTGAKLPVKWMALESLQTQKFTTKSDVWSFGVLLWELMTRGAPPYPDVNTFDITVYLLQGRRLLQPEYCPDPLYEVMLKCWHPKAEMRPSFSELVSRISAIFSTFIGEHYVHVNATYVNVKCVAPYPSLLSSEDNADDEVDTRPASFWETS", "experiment": "Cell free kinase inhibition assay", "type": "biochemical"}, "CSK": {"biological_target": "T5, CSK (Homo sapiens, UniProt P41240)", "T5 construct": "purchased Carna Biosciences, Inc. (Kobe, Japan)", "experiment": "Cell free kinase inhibition assay", "type": "biochemical"}, "FGFR3": {"biological_target": "T6, FGFR3 (Homo sapiens, UniProt P22607)", "T6 construct": "purchased Carna Biosciences, Inc. (Kobe, Japan)", "experiment": "Cell free kinase inhibition assay", "type": "biochemical"}, "EPHB2": {"biological_target": "T7, EPHB2 (Homo sapiens, UniProt P29323)", "T7 construct": "purchased Carna Biosciences, Inc. (Kobe, Japan)", "experiment": "Cell free kinase inhibition assay", "type": "biochemical"}, "[1]": {"tested_on": "5 ATC xenograft models (8305C, 8505C, TCO-1, KHM-5M, HTC/C3)", "experiment": "Human thyroid cancer xenograft models, tumor growth", "type": "in vivo, nude mice", "details": "all 5 ATC xenograft models, 10 and 100 mg/kg oral once daily 14 days", "procedure": "(§2) Nude mice (CAnN.Cg-Foxn1nu/CrlCrlj, female, 5-6 weeks old) were obtained from Charles River Laboratories Japan (Kanagawa, Japan). Mice were maintained under specific pathogen-free conditions and housed in barrier facilities on a 12 h light/dark cycle, with food and water ad libitum. All procedures using laboratory animals were done in accordance with all applicable institutional and government regulatory guidelines and policies and were performed in an animal facility accredited by the Center for Accreditation of Laboratory Animal Care of the Japan Health Sciences Foundation. Tumor cells were cultured in appropriate culture mediums. […] Then, 0.1-0.2 mL of the cell suspension was inoculated subcutaneously into the right flank region of each mouse. […] The tumor size was measured in two dimensions by using a caliper, and the volume was calculated by using the formula: tumor volume (mm^3) = 1/2 length (mm) × [width (mm)]^2. The change in tumor volume in the treated group relative to that in the control group was calculated according to the following formula: ΔT/C = (ΔT/ΔC) × 100%, where ΔT and ΔC are the change in tumor volume (i.e., growth) for the treated and vehicle control group, respectively. The percentage of tumor growth inhibition (%TGI) was calculated from the formula: [(1 − ΔT/ΔC) × 100]."}, "[2]": {"tested_on": "5 DTC xenograft models (K1, RO82-W-1, FTC-133, FTC-236, FTC-238)", "experiment": "Human thyroid cancer xenograft models, tumor growth", "type": "in vivo, nude mice", "details": "all 5 DTC xenograft models, 30 and 100 mg/kg oral once daily 14 days", "procedure": "as §2"}, "8305C cells": {"tested_on": "8305C cells", "experiment": "Antiproliferation assay (WST-8)", "type": "cell-based", "details": "Homo sapiens, 72 h; 8305C (ATC), antiproliferative, 3 days"}, "KIT(V654A)": {"biological_target": "T8, KIT(V654A) (Homo sapiens, UniProt P10721, V654A)", "T8 construct": "purchased Carna Biosciences, Inc. (Kobe, Japan)", "T8 sequence (P10721 26-976 V654A)": "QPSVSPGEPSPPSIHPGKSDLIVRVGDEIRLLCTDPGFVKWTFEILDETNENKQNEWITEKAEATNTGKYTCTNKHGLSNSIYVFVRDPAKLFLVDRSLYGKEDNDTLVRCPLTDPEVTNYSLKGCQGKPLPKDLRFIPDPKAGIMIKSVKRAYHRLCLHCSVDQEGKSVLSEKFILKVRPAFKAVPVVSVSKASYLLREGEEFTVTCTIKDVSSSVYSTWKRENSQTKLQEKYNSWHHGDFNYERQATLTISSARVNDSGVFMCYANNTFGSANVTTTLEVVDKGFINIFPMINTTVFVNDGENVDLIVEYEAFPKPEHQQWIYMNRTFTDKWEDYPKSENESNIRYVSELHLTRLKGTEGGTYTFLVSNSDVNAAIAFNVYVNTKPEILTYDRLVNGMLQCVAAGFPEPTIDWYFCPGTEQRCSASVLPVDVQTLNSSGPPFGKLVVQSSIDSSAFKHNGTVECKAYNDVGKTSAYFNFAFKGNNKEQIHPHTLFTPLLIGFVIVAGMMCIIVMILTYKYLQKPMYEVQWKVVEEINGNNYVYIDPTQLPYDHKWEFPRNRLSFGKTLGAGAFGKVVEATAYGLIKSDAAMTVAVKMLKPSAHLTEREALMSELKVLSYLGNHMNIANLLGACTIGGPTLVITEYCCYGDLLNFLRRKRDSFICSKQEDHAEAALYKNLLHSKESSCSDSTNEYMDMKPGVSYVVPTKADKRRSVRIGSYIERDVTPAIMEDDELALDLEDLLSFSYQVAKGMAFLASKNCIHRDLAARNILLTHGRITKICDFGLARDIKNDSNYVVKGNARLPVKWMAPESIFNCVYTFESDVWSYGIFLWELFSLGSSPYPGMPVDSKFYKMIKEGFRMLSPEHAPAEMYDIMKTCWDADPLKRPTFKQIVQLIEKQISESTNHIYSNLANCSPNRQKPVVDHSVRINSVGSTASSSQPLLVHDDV", "experiment": "Cell free kinase inhibition assay", "type": "biochemical"}, "Nthy-ori 3-1 cells": {"tested_on": "Nthy-ori 3-1 cells", "experiment": "Antiproliferation assay (WST-8)", "type": "cell-based, human", "details": "Homo sapiens, 72 h; Nthy-ori 3-1 (normal thyroid), antiproliferative, 3 days"}, "EPHB4": {"biological_target": "T9, EPHB4 (Homo sapiens, UniProt P54760)", "T9 construct": "purchased Carna Biosciences, Inc. (Kobe, Japan)", "experiment": "Cell free kinase inhibition assay", "type": "biochemical"}, "AKT1": {"biological_target": "T10, AKT1 (Homo sapiens, UniProt P31749)", "T10 construct": "purchased Carna Biosciences, Inc. (Kobe, Japan)", "experiment": "Cell free kinase inhibition assay", "type": "biochemical"}, "KHM-5M cells": {"tested_on": "KHM-5M cells", "experiment": "Antiproliferation assay (WST-8)", "type": "cell-based", "details": "Homo sapiens, 72 h; KHM-5M (ATC), antiproliferative, 3 days"}, "COT": {"biological_target": "T11, COT (Homo sapiens, UniProt P41279)", "T11 construct": "purchased Carna Biosciences, Inc. (Kobe, Japan)", "experiment": "Cell free kinase inhibition assay", "type": "biochemical", "procedure": "[…]. Briefly, each test compound was mixed with enzyme, substrate, ATP, and Mg under appropriate buffer conditions for the ELISA or MSA. […] IC50 values (the half maximal inhibitory concentration) were calculated from concentrations versus % inhibition curves."}, "EPHA1": {"biological_target": "T12, EPHA1 (Homo sapiens, UniProt P21709)", "T12 construct": "purchased Carna Biosciences, Inc. (Kobe, Japan)", "T12 sequence (P21709 26-976)": "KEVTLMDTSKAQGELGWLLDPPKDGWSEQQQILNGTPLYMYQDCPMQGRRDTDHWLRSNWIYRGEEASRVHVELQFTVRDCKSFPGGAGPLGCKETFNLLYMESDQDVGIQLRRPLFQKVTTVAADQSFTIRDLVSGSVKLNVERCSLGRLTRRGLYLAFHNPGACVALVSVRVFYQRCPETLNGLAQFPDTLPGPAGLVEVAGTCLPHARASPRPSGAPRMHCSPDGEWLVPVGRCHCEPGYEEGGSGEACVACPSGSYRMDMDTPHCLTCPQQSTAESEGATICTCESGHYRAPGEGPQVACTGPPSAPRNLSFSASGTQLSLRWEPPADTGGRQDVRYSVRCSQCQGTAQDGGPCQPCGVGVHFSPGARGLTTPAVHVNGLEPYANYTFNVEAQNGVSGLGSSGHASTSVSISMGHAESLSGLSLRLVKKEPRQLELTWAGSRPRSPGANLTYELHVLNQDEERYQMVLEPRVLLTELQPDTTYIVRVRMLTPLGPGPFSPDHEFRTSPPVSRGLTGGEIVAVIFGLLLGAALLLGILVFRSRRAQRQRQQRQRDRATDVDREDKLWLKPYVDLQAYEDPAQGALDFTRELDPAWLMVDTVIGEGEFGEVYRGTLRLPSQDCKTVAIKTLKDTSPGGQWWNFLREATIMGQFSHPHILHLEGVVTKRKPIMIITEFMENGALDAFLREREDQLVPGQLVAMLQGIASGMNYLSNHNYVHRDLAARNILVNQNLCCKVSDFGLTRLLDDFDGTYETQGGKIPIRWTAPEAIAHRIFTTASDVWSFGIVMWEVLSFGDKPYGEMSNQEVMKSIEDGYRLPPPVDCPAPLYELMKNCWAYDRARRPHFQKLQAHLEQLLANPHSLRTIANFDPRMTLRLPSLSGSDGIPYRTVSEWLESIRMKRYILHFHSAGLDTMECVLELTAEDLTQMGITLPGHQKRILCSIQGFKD", "experiment": "Cell free kinase inhibition assay", "type": "biochemical"}, "PDGFRα(T674I)": {"biological_target": "T13, PDGFRα(T674I) (Homo sapiens, UniProt P16234, T674I)", "T13 construct": "purchased Carna Biosciences, Inc. (Kobe, Japan)", "T13 sequence (P16234 24-1089 T674I)": "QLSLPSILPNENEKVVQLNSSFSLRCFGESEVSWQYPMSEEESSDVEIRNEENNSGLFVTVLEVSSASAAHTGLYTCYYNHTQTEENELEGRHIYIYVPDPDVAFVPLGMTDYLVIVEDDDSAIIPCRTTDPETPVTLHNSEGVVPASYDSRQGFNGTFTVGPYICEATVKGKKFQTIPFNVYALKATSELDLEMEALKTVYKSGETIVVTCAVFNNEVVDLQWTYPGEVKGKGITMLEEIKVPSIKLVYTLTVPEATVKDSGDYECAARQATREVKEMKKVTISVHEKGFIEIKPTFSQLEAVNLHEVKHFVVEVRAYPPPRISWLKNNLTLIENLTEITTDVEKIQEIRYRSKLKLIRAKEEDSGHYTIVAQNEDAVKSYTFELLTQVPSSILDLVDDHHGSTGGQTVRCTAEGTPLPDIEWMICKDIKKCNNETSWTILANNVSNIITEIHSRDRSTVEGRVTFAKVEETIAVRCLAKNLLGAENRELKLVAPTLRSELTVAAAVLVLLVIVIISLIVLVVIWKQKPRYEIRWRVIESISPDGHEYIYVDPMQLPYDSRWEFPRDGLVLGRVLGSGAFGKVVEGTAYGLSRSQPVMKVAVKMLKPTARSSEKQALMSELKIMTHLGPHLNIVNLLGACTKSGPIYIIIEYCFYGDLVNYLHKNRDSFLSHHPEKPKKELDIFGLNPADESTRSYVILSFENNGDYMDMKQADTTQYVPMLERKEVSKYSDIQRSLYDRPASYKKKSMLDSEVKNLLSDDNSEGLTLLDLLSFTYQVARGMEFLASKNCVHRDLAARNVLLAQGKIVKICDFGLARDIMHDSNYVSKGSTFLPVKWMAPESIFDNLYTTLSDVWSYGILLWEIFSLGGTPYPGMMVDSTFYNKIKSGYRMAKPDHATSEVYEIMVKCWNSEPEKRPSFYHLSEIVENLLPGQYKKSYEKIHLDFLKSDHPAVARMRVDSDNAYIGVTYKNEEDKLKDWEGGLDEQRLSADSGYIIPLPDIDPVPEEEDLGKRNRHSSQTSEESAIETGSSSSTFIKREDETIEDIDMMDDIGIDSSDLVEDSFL", "experiment": "Cell free kinase inhibition assay", "type": "biochemical"}, "PKACα": {"biological_target": "T14, PKACα (Homo sapiens, UniProt P17612)", "T14 construct": "purchased Carna Biosciences, Inc. (Kobe, Japan)", "experiment": "Cell free kinase inhibition assay", "type": "biochemical"}, "GSK3β": {"biological_target": "T15, GSK3β (Homo sapiens, UniProt P49841)", "T15 construct": "purchased Carna Biosciences, Inc. (Kobe, Japan)", "experiment": "Cell free kinase inhibition assay", "type": "biochemical"}, "NEK2": {"biological_target": "T16, NEK2 (Homo sapiens, UniProt P51955)", "T16 construct": "purchased Carna Biosciences, Inc. (Kobe, Japan)", "experiment": "Cell free kinase inhibition assay", "type": "biochemical"}, "MUSK": {"biological_target": "T17, MUSK (Homo sapiens, UniProt O15146)", "T17 construct": "purchased Carna Biosciences, Inc. (Kobe, Japan)", "experiment": "Cell free kinase inhibition assay", "type": "biochemical"}, "K1 cells": {"tested_on": "K1 cells", "experiment": "Antiproliferation assay (WST-8)", "type": "cell-based, human", "details": "Homo sapiens, 72 h; K1 (DTC), antiproliferative, 3 days"}, "TT cells": {"tested_on": "TT cells", "experiment": "Antiproliferation assay (WST-8)", "type": "cell-based", "details": "Homo sapiens, 240 h; TT (MTC), antiproliferative, 10 days; read-out: IC50"}, "[3]": {"tested_on": "FGFR1 and its downstream effectors (FRS2, MEK, ERK)", "experiment": "Western blot of FGFR1 signaling in bFGF-stimulated RO82-W-1 cells", "details": "1 h treatment, then bFGF 20 ng/mL and heparin 10 min"}, "PDGFRα": {"biological_target": "T18, PDGFRα (Homo sapiens, UniProt P16234)", "T18 construct": "purchased Carna Biosciences, Inc. (Kobe, Japan)", "T18 sequence (P16234 24-1089)": "as the sequence (P16234 24-1089 T674I) above, with I651T counted along it", "experiment": "Cell free kinase inhibition assay", "type": "biochemical"}}, "data": [{"smiles": "COc1cc2nccc(Oc3ccc(NC(=O)NC4CC4)c(Cl)c3)c2cc1C(N)=O", "note": "[Lenvatinib, Lenvatinib mesilate]", "values": [{"measurement": "phosphorylation of wild-type RET", "setting": "KIF5B-RET (wild-type)", "result": "inhibited"}, {"measurement": "phosphorylation of M918T mutant RET", "setting": "KIF5B-RET (M918T)", "result": "inhibited"}, {"measurement": "IC50", "setting": "PLK1", "result": "> 10", "unit": "µM"}, {"measurement": "IC50", "setting": "MET", "result": 0.52, "unit": "µM"}, {"measurement": "IC50", "setting": "CSK", "result": 2.6, "unit": "µM"}, {"measurement": "IC50", "setting": "FGFR3", "result": 0.052, "unit": "µM"}, {"measurement": "IC50", "setting": "EPHB2", "result": 0.66, "unit": "µM"}, {"measurement": "antitumor activity", "setting": "[1]", "result": "significant antitumor activity"}, {"measurement": "antitumor activity", "setting": "[2]", "result": "significant antitumor activity"}, {"measurement": "IC50", "setting": "8305C cells", "result": 26, "unit": "µM"}, {"measurement": "IC50", "setting": "KIT(V654A)", "result": 0.52, "unit": "µM"}, {"measurement": "IC50", "setting": "Nthy-ori 3-1 cells", "result": 15, "unit": "µM"}, {"measurement": "IC50", "setting": "EPHB4", "result": 4.6, "unit": "µM"}, {"measurement": "IC50", "setting": "AKT1", "result": "> 10", "unit": "µM"}, {"measurement": "IC50", "setting": "KHM-5M cells", "result": 28, "unit": "µM"}, {"measurement": "IC50", "setting": "COT", "result": "> 10", "unit": "µM"}, {"measurement": "IC50", "setting": "EPHA1", "result": 5.1, "unit": "µM"}, {"measurement": "IC50", "setting": "PDGFRα(T674I)", "result": 0.63, "unit": "µM"}, {"measurement": "IC50", "setting": "PKACα", "result": "> 10", "unit": "µM"}, {"measurement": "IC50", "setting": "GSK3β", "result": "> 10", "unit": "µM"}, {"measurement": "IC50", "setting": "NEK2", "result": "> 10", "unit": "µM"}, {"measurement": "IC50", "setting": "MUSK", "result": "> 10", "unit": "µM"}, {"measurement": "IC50", "setting": "K1 cells", "result": 22, "unit": "µM"}, {"measurement": "IC50", "setting": "TT cells", "result": 0.078, "unit": "µM"}, {"measurement": "phosphorylation of FGFR1, FRS2, MEK, and ERK", "setting": "[3]", "result": "inhibited the phosphorylation of FGFR1 and of FRS2, MEK, and ERK, in a concentration-dependent manner"}, {"measurement": "IC50", "setting": "PDGFRα", "result": 0.029, "unit": "µM"}]}]}
